Results taken from patent US20130053336A1, “TREATMENT OF CHLAMYDIACEAE INFECTIONS BY MEANS OF BETA-LACTAMS” (priority 2010, published 2013).
In brackets after ≈: the same amount, converted by molar mass. Like-named read-outs stand apart in the source and are kept apart here.

Assays:
[1] = tested on: HeLa cells infected with Chlamydia trachomatis; test: Sensitivity to apoptosis of infected cells (staurosporine); assay type: cell-based
Method: A: HeLa cells were infected with Chlamydia trachomatis and treated or not treated with penicillin G at 3 hpi. At 21 hpi, staurosporine was added to the culture medium. The cells were fixed at 48 hpi and stained with an antibody against Chlamydia sp. (green in the original figure) and Hoechst (blue in the original figure).
B: Normal or apoptotic nuclei associated with inclusions were counted and the percentage of infected cells in apoptosis was calculated.
HeLa cells were infected in the absence (white bar) or presence of penicillin G (100 U/ml) added at […] (light gray bar) or at 29 hpi (dark gray bar). Staurosporine was added at 31 hpi. The cells were fixed and observed as described below. The apoptotic or normal nuclei associated with inclusions were counted, and the percentages of apoptotic infected cells were determined. In 2 hours, treatment with penicillin G induces a loss of control by Chlamydia trachomatis over host cell apoptosis.
The effect of treatment with penicillin G on the anti-apoptotic activity of Chlamydia was determined. HeLa cells cultured in monolayers on slides were infected with serovar L2 and treated with penicillin G at 3 hpi or 29 hpi. At 25 hpi or 32 hpi, respectively, the cells were incubated with 1 μM staurosporine, fixed at 40 hpi or 48 hpi and prepared for epifluorescence microscopy. The percentages of infected cells containing apoptotic nuclei were calculated.

[2] = tested on: Cells Infected with Chlamydia trachomatis serovar L2; test: Cytotoxicity of β-lactams; assay type: cell-based; settings: given as 0
Method: (§1) It was first sought to verify whether other molecules of the β-lactam family could induce in vitro the same abnormal and noninfectious forms of Chlamydia trachomatis as that produced in the presence of penicillin G. Titration experiments were performed on the infectious ability of bacteria from infected cells treated with different β-lactams. Cytotoxicity and minimum bactericidal concentration (MBC) were determined for each of these molecules. It was also verified whether all of these β-lactams have bactericidal action on persistent forms of Chlamydia trachomatis produced in vitro under the effect of IFN-γ.

[3] = tested on: Chlamydia trachomatis serovar L2; test: Minimum bactericidal concentration (titration of infectious ability of bacteria from treated infected cells); assay type: cell-based
Method: as §1

[4] = tested on: Chlamydia trachomatis inclusions; test: Fusion of lysosomes with inclusions (cathepsin D, LysoTracker, confocal microscopy); assay type: cell-based
[5] = tested on: Chlamydia trachomatis serovar L2; test: Development and morphology of inclusions in infected HeLa cells (microscopy); assay type: cell-based
Method: HeLa cells were infected with Chlamydia trachomatis serovar L2 and treated with IFN-γ (100 ng/ml), penicillin G (100 U/ml) or gentamicin ([…]). At various times after infection (hours post-infection (hpi)), the cells were fixed and stained with an antibody against Chlamydia sp. (green in the original figure) and with Hoechst (blue in the original figure). The infected HeLa cells treated with penicillin G have abnormal bodies that grow and that are phenotypically quite different from those formed during treatment with IFN-γ. The bodies formed with penicillin G are appreciably different from “classic” persistent bodies. To examine the effects of penicillin G on cell infection with Chlamydia, the host cells were cultivated up to 70% confluence without antibiotics, and then were infected with C. trachomatis strain […]. muridarum at 1 IFU. The infections were carried out at 37° C. for 90 minutes with centrifugation, followed by a washing of extracellular bacteria. At 3 hpi, after the washings, the culture medium was replaced with medium containing either 25 μg/ml gentamicin or 1-100 IU/ml penicillin G. At regular intervals after treatment with penicillin G, the cultures were either fixed in 4% neutral buffered PFA for 30 minutes to be prepared for confocal microscopy, or collected to determine the infectivity of the progeny bacteria, according to the previously described method (Verbeke, P. et al. PLoS Pathog 2:e45, 2006). HeLa cells cultured in monolayers on slides were infected with serovar L2 with an IFU of 1, as described above (Verbeke, P. et al. PLoS Pathog 2:e45, 2006). Three hours after the infection, the medium was removed and replaced with culture medium containing 500 IU/ml (final concentration) recombinant human IFN-γ.

[6] = tested on: persistent forms of Chlamydia; test: Penicillin G on persistent infection induced by IFN-γ; assay type: cell-based, Chlamydia trachomatis
Method: HeLa cells cultured in monolayers on slides were infected with serovar L2 with an IFU of 1, as described above (Verbeke, P. et al. PLoS Pathog 2:e45, 2006). Three hours after the infection, the medium was removed and replaced with culture medium containing 500 IU/ml (final concentration) recombinant human IFN-γ. The infected cells were incubated for an additional 100 hours in the presence of IFN-γ before being prepared for confocal microscopy as described below.
HeLa cells cultured in monolayers on slides were infected with Chlamydia trachomatis serovar L2 and treated with penicillin G, as described above. Twenty hours after infection, the culture was washed and the medium replaced with medium free of penicillin G. Between 48 and 100 hpi, the cells and the culture medium were collected at various intervals and a titration test was performed according to the method of the prior art (Scidmore, M. A. Curr Protoc Microbiol Chapter 11: Unit 11A 11, 2005). To determine whether treatment with penicillin G could affect bacterial persistence, HeLa cells infected with L2 and treated with IFN-γ and penicillin G (500 IU/ml) from 48 hpi (i.e. 24 hours after treatment with IFN-γ) to 72 hpi (i.e. 48 hours after treatment with IFN-γ). The slides were then fixed and observed using an epifluorescence microscope (Leica D M, Leica, Mannheim, Germany) equipped with two sets of detection filters (Hoechst 360/40 nmBP-425 nmLP; FITC 480/40 nmBP-527/30 nmBP) and connected to a CCD camera CCC.
The effects of penicillin G were tested on persistent infections. Cells were infected and then treated with IFN-γat 3 hpi. Once the appearance of persistent inclusions was observed under the microscope, penicillin G was added to the infected cells cultured in the presence of IFN-γ.

SMILES: CC1(C)S[C@@H]2[C@H](NC(=O)Cc3ccccc3)C(=O)N2[C@H]1C(=O)O [Penicillin G, benzylpenicillin]
- speed of loss of control over host cell apoptosis ([1]; penicillin G 100 U/ml at 29 hpi, staurosporine at 31 hpi): ≤ 2 h
- apoptotic cells ([1]; penicillin G at 2 hpi or 29 hpi, staurosporine at 31 hpi, observed 8 hours later): Roughly 38%
- infected cells showing signs of apoptosis ([1]; penicillin G, 4 μM staurosporine at 21 hpi, read at 48 hpi): 70.39%
- Cytotox. [2]: 0
- MBC ([3]; minimum bactericidal concentration, read-out: MBC): 0.3 µM (≈ 0.1 µg/mL)
- MBC ([3]; second line of the MBC cell, read-out: MBC, bound in parentheses below the value): > 0.1 µM
- localization of cathepsin D in inclusions ([4]; HeLa, 24 hpi): the majority of the abnormal bacterial forms contained cathepsin D
- cathepsin D in abnormal inclusions of other cell/serovar pairs ([4]; RL95-2 cells/serovar L2 or HeLa cells/serovar D): also contain cathepsin D
- LysoTracker-stained compartments and inclusions ([4]; confocal videomicroscopy): compartments stained with LysoTracker probes enter abnormal inclusions
- growth of the bacterial inclusions ([5]; infected HeLa cells, videomicroscopy / culture for 4 days): grow as quickly as those of cells treated with gentamicin
- time at which infected treated cells were lysed ([5]; penicillin G): 120 hours post-infection (hpi)
- appearance of abnormally dilated structures depending on time of addition ([5]; penicillin G added at various times after infection): only when penicillin G is added in the first phase of the bacterial cycle (before 24 hpi)
- inclusion growth of persistent inclusions after addition of penicillin G ([6]; cells kept in IFN-γ): Rapid reinitiation of inclusion growth
- infectivity of bacteria released on lysis ([6]; persistent infection): noninfectious
- time of cell lysis after start of treatment ([6]; persistent infection, IFN-γ present): 70 h
- cathepsin D in bacterial forms of persistent infection ([6]; twenty-four hours after addition of penicillin G): most of the abnormal bacterial forms contained cathepsin D
